Data: ChEMBL document CHEMBL4393714, “Multi-targeting protein-protein interaction inhibitors: Evolution of macrocyclic ligands with embedded carbohydrates (MECs) to improve selectivity” (Eur J Med Chem, 2019)

Columns and labels:
[1] = target: Sodium-dependent dopamine transporter (Homo sapiens) (UniProt Q01959); experiment: Displacement of [3H] BTCP from human recombinant dopamine […] at 10 uM measured after 120 mins by scintillation counter method relative to control
Rattus norvegicus [2] = organism: Rattus norvegicus; experiment: Displacement of [3H] batrachotoxinin from rat sodium channel site 2 at 10 uM measured after 60 mins by scintillation counter method relative to control
[3] = target: Vasoactive intestinal polypeptide receptor 1 (Homo sapiens) (UniProt P32241); experiment: Displacement of [125I] VIP from human recombinant VPAC1 receptor at 10 uM measured after 60 mins by scintillation counter method relative to control
Vasoactive intestinal polypeptide receptor 1 (Homo sapiens), sequence (P32241 whole entry): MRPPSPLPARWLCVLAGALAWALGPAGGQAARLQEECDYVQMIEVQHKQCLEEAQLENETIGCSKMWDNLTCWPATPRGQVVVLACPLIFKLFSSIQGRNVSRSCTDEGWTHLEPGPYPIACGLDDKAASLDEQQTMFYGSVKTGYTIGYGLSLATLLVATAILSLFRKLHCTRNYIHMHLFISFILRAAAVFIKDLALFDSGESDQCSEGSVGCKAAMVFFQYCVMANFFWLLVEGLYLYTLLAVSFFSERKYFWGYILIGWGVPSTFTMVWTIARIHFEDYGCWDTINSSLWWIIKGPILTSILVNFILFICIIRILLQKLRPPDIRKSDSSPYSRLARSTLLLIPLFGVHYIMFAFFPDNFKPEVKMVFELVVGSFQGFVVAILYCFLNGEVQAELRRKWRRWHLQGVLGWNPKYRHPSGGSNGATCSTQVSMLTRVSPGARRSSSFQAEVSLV

[4] = target: 5-hydroxytryptamine receptor 6 (Homo sapiens) (UniProt P50406); experiment: Displacement of [3H]LSD from human recombinant 5-HT6 receptor at 10 uM measured after 120 mins by scintillation counter method relative to control
[5] = target: 5-hydroxytryptamine receptor 5A (Homo sapiens) (UniProt P47898); experiment: Displacement of [3H]LSD from human recombinant 5-HT5A receptor at 10 uM measured after 120 mins by scintillation counter method relative to control
[6] = target: 5-hydroxytryptamine receptor 2A (Homo sapiens, UniProt P28223); experiment: Displacement of [3H] ketanserin from human recombinant 5-HT2A receptor at 10 uM measured after 60 mins by scintillation counter method relative to control
5-hydroxytryptamine receptor 2A, sequence (P28223 whole entry): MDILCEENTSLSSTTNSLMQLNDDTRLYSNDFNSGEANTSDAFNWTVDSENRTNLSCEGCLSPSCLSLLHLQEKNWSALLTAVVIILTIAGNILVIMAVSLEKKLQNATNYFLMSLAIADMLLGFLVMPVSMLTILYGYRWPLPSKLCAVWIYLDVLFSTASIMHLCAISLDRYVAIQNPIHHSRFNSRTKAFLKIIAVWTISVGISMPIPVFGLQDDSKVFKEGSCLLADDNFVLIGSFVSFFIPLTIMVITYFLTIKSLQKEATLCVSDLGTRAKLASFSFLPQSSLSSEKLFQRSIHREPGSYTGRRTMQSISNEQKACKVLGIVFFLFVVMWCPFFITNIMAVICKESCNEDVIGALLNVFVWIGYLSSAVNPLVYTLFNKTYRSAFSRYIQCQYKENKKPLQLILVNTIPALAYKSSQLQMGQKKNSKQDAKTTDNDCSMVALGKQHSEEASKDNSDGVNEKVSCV

[7] = target: 5-hydroxytryptamine receptor 1A (Homo sapiens) (UniProt P08908); experiment: Displacement of [3H]-OH-DPAT from human recombinant 5-HT1A receptor at 10 uM measured after 60 mins by scintillation counter method relative to control
[8] = target: Prostaglandin E2 receptor EP4 subtype (Homo sapiens) (UniProt P35408); experiment: Displacement of [3H]PGE2 from human recombinant EP4 receptor at 10 uM measured after 120 mins by scintillation counter method relative to control
[9] = target: Nociceptin receptor (Homo sapiens) (UniProt P41146); experiment: Displacement of [3H]nociceptin from human recombinant ORL1 at 10 uM measured after 60 mins by scintillation counter method relative to control
[10] = target: Mu-type opioid receptor (Homo sapiens) (UniProt P35372); experiment: Displacement of [3H] DAMGO from human recombinant mu opioid receptor at 10 uM measured after 120 mins by scintillation counter method relative to control
[11] = target: Neuropeptide Y receptor type 1 (Homo sapiens) (UniProt P25929); experiment: Displacement of [125I] peptide YY from human neuropeptide Y1 receptor at 10 uM measured after 120 mins by scintillation counter method relative to control
Neuropeptide Y receptor type 1 (Homo sapiens), sequence (P25929 whole entry): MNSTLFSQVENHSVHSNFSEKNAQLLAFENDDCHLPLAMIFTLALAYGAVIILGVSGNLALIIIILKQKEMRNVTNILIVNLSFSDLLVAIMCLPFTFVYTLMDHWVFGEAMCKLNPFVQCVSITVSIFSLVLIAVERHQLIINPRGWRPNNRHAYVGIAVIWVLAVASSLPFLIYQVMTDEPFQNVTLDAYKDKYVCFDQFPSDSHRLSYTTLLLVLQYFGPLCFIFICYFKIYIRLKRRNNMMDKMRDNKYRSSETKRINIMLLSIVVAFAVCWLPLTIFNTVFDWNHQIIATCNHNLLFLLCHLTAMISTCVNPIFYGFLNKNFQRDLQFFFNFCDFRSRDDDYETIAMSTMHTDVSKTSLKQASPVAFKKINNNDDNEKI

[12] = target: Neuromedin-K receptor (Homo sapiens) (UniProt P29371); experiment: Displacement of [3H] HSR 142801 from human recombinant neurokinin beta receptor at 10 uM measured after 120 mins by scintillation counter method
[13] = target: Muscarinic acetylcholine receptor M3 (Homo sapiens) (UniProt P20309); experiment: Displacement of [3H]4-DAMP from human recombinant muscarinic 3 receptor at 10 uM measured after 60 mins by scintillation counter method relative to control
[14] = target: Muscarinic acetylcholine receptor M2 (Homo sapiens) (UniProt P08172); experiment: Displacement of [3H]AF-DX 384 from human recombinant muscarinic 2 receptor at 10 uM measured after 60 mins by scintillation counter method relative to control
Muscarinic acetylcholine receptor M2 (Homo sapiens), sequence (P08172 whole entry): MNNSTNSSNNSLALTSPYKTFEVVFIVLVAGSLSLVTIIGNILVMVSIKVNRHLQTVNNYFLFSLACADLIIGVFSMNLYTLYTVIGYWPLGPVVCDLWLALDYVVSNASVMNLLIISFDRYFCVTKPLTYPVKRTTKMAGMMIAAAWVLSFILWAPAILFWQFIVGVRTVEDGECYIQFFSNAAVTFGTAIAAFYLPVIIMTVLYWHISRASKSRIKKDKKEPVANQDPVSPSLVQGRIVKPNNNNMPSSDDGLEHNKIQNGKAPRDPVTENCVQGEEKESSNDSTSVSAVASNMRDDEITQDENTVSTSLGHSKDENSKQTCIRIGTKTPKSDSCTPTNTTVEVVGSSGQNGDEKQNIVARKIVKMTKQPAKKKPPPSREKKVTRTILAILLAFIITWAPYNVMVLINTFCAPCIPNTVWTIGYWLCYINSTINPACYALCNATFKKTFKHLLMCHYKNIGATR

[15] = target: Muscarinic acetylcholine receptor M1 (Homo sapiens) (UniProt P11229); experiment: Displacement of [3H]pirenzepine from human recombinant muscarinic 1 receptor at 10 uM measured after 60 mins by scintillation counter method relative to control
[16] = target: C-C chemokine receptor type 1 (Homo sapiens) (UniProt P32246); experiment: Displacement of [125I]MIP1-alpha from human recombinant CCR1 receptor at 10 uM measured after 120 mins by scintillation counter method relative to control
[17] = target: Galanin receptor type 2 (Homo sapiens) (UniProt O43603); experiment: Displacement of [125I]galanin from human recombinant GAL2 receptor at 10 uM measured after 120 mins by scintillation counter method relative to control
Galanin receptor type 2 (Homo sapiens), sequence (O43603 whole entry): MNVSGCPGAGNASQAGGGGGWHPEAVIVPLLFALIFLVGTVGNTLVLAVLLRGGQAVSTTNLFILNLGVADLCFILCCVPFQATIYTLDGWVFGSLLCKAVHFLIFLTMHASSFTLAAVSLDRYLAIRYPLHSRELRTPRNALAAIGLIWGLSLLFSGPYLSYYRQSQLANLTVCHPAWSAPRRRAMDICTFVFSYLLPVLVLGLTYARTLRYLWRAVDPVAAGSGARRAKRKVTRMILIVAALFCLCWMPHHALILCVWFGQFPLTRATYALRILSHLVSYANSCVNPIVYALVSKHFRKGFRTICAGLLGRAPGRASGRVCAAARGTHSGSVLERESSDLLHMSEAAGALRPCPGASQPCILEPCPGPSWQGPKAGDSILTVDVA

[18] = target: D(2) dopamine receptor (Homo sapiens) (UniProt P14416); experiment: Displacement of [3H]methyl-spiperone from human recombinant D2S receptor at 10 uM measured after 60 mins by scintillation counter method relative to control
[19] = target: Type-1 angiotensin II receptor (Homo sapiens) (UniProt P30556); experiment: Displacement of [125I][Sar1,Ile8]-AT-II from human recombinant AT1 receptor at 10 uM measured after 120 mins by scintillation counter method relative to control
Type-1 angiotensin II receptor (Homo sapiens), sequence (P30556 whole entry): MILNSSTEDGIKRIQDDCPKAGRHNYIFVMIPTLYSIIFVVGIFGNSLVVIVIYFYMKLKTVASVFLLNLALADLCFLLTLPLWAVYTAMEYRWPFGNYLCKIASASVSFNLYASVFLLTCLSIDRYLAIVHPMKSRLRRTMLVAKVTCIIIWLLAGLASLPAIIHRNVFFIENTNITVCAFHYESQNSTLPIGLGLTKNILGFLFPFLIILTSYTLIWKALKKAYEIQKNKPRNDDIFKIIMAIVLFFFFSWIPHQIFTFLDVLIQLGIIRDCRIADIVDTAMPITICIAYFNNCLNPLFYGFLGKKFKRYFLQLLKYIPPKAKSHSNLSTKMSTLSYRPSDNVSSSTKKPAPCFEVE

[20] = target: Adrenergic receptor alpha-2 (Rattus norvegicus) (UniProt P22086+P19328+P22909); experiment: Displacement of [3H] RX 821002 from rat alpha2 adreno receptor at 10 uM measured after 60 mins by scintillation counter method relative to control; type: protein assay
[21] = target: Adrenergic receptor alpha-1 (Rattus norvegicus) (UniProt P15823+P23944+P43140); experiment: Displacement of [3H] prazosin from rat alpha1 adreno receptor at 10 uM measured after 60 mins by scintillation counter method relative to control; type: protein assay
[22] = target: Adenosine receptor A2a (Homo sapiens) (UniProt P29274); experiment: Displacement of [3H]CGS 21680 from human recombinant A2A receptor at 10 uM measured after 120 mins by scintillation counter method relative to control
Adenosine receptor A2a (Homo sapiens), sequence (P29274 whole entry): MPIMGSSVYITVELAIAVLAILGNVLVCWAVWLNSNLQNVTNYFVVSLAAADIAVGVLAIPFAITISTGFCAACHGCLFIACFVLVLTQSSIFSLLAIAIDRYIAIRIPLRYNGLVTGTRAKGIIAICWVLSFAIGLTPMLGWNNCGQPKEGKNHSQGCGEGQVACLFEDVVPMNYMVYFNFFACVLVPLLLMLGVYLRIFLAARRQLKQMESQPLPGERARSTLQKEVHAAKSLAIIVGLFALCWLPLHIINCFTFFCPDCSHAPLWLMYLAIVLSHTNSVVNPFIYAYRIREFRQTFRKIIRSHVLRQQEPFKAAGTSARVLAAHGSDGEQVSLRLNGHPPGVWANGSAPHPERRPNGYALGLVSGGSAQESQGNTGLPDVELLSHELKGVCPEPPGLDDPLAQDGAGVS

Rattus norvegicus [23] = organism: Rattus norvegicus; experiment: Displacement of [3H]flunitrazepam from rat GABAA Central-type benzodiazepine receptor at 10 uM measured after 120 mins by scintillation counter method relative to control
Substance-K receptor = target: T1, Substance-K receptor (Homo sapiens, UniProt P21452); experiment: Displacement of [125I]NKA from human recombinant NK2 receptor measured after 60 mins by scintillation counter method
T1 sequence (P21452 whole entry): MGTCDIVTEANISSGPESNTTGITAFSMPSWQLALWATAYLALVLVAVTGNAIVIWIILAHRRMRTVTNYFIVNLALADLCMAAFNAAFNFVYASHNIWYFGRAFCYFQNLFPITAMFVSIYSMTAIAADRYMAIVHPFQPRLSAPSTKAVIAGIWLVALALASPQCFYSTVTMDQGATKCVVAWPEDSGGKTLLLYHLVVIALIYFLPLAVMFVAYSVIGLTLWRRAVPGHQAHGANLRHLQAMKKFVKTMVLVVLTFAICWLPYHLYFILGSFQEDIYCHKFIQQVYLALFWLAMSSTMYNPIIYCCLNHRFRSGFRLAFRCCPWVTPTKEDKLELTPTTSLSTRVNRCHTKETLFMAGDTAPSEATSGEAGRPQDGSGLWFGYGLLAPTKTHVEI

[24] = target: 5-hydroxytryptamine receptor 2C (Homo sapiens, UniProt P28335); experiment: Displacement of [3H] mesulergine from human recombinant 5-HT2C receptor measured after 120 mins by scintillation counter method
5-hydroxytryptamine receptor 2C, sequence (P28335 whole entry): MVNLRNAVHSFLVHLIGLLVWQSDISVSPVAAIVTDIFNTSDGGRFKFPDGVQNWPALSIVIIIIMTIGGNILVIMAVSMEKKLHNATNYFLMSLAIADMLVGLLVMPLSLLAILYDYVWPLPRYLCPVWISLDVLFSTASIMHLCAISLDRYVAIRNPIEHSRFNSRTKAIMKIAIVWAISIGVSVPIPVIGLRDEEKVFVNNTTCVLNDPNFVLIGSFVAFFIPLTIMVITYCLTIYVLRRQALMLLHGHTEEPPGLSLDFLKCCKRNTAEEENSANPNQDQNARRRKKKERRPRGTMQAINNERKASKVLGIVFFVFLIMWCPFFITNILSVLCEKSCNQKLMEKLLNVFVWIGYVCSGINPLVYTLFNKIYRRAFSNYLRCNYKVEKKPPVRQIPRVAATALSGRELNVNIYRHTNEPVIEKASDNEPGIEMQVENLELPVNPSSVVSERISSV

[25] = Displacement of [3H] batrachotoxinin from rat sodium channel site 2 measured after 60 mins by scintillation counter method
[26] = target: Sodium-dependent serotonin transporter (Homo sapiens, UniProt P31645); experiment: Displacement of [3H] imipramine from human recombinant 5-HT transporter measured after 60 mins by scintillation counter method
Sodium-dependent serotonin transporter, sequence (P31645 whole entry): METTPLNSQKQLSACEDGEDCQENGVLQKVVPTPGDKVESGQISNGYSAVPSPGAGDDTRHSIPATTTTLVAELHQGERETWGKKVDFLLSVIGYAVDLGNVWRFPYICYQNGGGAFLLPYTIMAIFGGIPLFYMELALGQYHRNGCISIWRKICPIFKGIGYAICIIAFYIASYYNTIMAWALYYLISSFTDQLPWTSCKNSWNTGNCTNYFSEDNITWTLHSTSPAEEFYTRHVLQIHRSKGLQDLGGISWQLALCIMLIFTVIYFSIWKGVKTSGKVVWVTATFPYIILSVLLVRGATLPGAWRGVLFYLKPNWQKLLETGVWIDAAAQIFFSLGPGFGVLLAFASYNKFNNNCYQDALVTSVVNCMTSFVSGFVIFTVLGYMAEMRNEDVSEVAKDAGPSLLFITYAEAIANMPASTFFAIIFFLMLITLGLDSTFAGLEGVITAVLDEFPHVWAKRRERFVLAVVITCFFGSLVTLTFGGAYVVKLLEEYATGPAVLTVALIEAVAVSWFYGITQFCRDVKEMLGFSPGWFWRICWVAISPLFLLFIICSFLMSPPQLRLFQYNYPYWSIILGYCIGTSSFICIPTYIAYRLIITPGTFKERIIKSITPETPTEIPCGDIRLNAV

Sodium-dependent dopamine transporter (Homo sapiens), sequence (Q01959 whole entry): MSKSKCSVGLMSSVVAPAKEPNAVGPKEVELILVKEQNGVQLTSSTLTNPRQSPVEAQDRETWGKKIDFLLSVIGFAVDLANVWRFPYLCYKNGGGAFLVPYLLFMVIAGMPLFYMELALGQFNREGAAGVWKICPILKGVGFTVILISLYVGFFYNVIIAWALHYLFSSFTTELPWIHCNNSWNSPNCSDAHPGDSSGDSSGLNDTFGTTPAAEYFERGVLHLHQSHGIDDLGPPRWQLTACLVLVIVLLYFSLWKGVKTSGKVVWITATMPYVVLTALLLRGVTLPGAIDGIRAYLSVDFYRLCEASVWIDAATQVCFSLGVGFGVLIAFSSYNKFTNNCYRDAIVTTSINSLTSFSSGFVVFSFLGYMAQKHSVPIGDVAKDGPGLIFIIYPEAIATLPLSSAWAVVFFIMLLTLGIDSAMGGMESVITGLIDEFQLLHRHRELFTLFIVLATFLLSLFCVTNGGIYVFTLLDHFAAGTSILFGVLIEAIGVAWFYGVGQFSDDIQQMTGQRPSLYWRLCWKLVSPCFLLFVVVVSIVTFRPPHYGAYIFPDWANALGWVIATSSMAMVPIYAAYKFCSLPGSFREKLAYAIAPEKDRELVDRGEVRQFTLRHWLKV

CC(C)CCO[C@@H]1[C@H]2OC(C)(C)O[C@H]2[C@H]2Cn3cc(nn3)COCCCCCCN(CCc3ccc4ccccc4c3)CC[C@H]1O2
inhibition [1]: 64.1% | inhibition (Rattus norvegicus [2]): 102% | Activity [3]: 14.8% | inhibition [4]: 16.1% | inhibition [5]: 89% | inhibition [6]: 93.2% | inhibition [7]: 90.2% | inhibition [8]: 29.9% | inhibition [9]: 9.9% | inhibition [10]: 96.5% | Activity [11]: 3.3% | inhibition [12]: 48.3% | inhibition [13]: 41.2% | inhibition [14]: 36.2% | inhibition [15]: 31% | inhibition [16]: 35.2% | Activity [17]: 17.4% | inhibition [18]: 59.6% | inhibition [19]: 17.2% | inhibition [20]: 5% | inhibition [21]: 57.7% | inhibition [22]: 14.6% | Activity (Rattus norvegicus [23]): 3.7% | IC50 (Substance-K receptor): 260 nM | Ki (Substance-K receptor): 140 nM | IC50 [24]: > 100000 nM | Ki [24]: > 100000 nM | IC50 [25]: 120 nM | Ki [25]: 100 nM | IC50 [26]: 7400 nM | Ki [26]: 3400 nM
